Where two headings read alike, the source gives them in different places.
Target: T1, cloned human dopamine D3 receptors (Homo sapiens, UniProt P35462)
T1 construct: expressed in transfected cells; membrane homogenate
Assay: [N-Methyl-3H]Spiroperidol binding to cloned human dopamine D3 receptors (Protocol 1)
Method in brief: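 Membranes from CHO cells stably expressing cloned human D3 receptor were used for [N-methyl-3H]spiroperidol (60-90 Ci/mmol) binding. Assay buffer was 0.05 M Tris HCl pH 7.7 with 120 mM NaCl, 5 mM KCl, 2 mM CaCl2 and 1 mM MgCl2, optionally 0.1% ascorbic acid; total ligand concentration calculated from added CPM.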

[1] = the 13th table, unit inferred, read-out: D3Ki

T1 sequence (P35462 whole entry): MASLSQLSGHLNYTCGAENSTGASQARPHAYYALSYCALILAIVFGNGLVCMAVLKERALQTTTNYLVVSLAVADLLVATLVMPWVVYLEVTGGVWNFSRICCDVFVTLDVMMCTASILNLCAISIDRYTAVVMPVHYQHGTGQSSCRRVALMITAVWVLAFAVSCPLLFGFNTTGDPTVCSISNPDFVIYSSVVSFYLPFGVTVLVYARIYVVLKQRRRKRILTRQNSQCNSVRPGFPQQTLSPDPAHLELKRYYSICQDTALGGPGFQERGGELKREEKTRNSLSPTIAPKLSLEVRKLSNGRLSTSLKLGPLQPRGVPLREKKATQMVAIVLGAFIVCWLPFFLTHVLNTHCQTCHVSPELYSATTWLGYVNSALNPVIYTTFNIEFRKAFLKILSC

Row | SMILES | Ki [1] | Ki (read-out: D3K1)
1 | O=C(NCCCCCN1CCCN(c2csc3cc(F)ccc23)CC1)c1cc2sccc2s1 [S984502] | 6.41 nM | 
2 | Cc1nn(C)c2sc(C(=O)NCCCCCN3CCCN(c4csc5cc(F)ccc45)CC3)cc12 [S984503] | 10.2 nM | 
3 | O=C(NCCCCCN1CCCN(c2csc3cc(F)ccc23)CC1)c1cc2ccccc2[nH]1 [S984504] | 17.1 nM | 
4 | COc1ccc2[nH]c(C(=O)NCCCCCN3CCCN(c4csc5cc(F)ccc45)CC3)cc2c1 [S984505] | 13 nM | 
5 | Cn1c(C(=O)NCCCCCN2CCCN(c3csc4cc(F)ccc34)CC2)cc2ccccc21 [S984506] | 33.4 nM | 
6 | O=C(NCCCCCN1CCCN(c2csc3cc(F)ccc23)CC1)c1c[nH]c2ccccc12 [S984507] | 62 nM | 
7 | O=C(NCCCCCN1CCCN(c2csc3cc(F)ccc23)CC1)c1cccc2[nH]ccc12 [S984508] | 34.8 nM | 
8 | O=C(NCCCCCN1CCCN(c2csc3cc(F)ccc23)CC1)c1ccc2[nH]ccc2c1 [S984509] | 11.9 nM | 
9 | O=C(NCCCCCN1CCCN(c2csc3cc(F)ccc23)CC1)c1ccc2cc[nH]c2c1 [S984510] | 10.1 nM | 
10 | O=C(NCCCCCN1CCCN(c2csc3cc(F)ccc23)CC1)c1n[nH]c2ccccc12 [S984511] | 25.4 nM | 
11 | O=C(NCCCCN1CCCN(c2csc3cc(C(F)(F)F)ccc23)CC1)c1cc2ccccc2o1 [S984513] | 19 nM | 
12 | O=C(NCCCCN1CCCN(c2csc3cc(F)ccc23)CC1)c1ccc(C(F)(F)F)cc1 [S9818147] | 30.8 nM | 
13 | O=C(NCCCCCN1CCCN(c2csc3cc(F)ccc23)CC1)c1ccc(OC(F)(F)F)cc1 [S9894488] | 23.8 nM | 
14 | O=C(NCCCCN1CCC(c2noc3ccsc23)CC1)c1ccc2ccccc2c1 [compound 81514] | 191 nM | 
15 | COc1cc(OC)cc(C(=O)NCCCCN2CCCN(c3csc4cc(F)ccc34)CC2)c1 [compound 82251] | 10.9 nM | 
16 | CC(C)C(=O)NCCCCN1CCN(c2csc3cc(C(F)(F)F)ccc23)CC1 [compound 811700] |  | 42.1 nM
17 | O=C(NCCCCN1CCN(c2csc3cc(C(F)(F)F)ccc23)CC1)c1cccs1 [compound 811708] |  | 5.77 nM
18 | O=C(NCCCCN1CCN(c2c(Cl)sc3cc(F)ccc23)CC1)C(F)(F)F [compound 814854] |  | 35 nM
19 | CCOc1ccc(C(=O)NCCCCN2CCN(c3c(Cl)sc4cc(F)ccc34)CC2)cc1 [compound 815052] |  | 5.4 nM

Row | SMILES | Ki [1] | Ki (read-out: D3K1)
20 | O=C(NCCCCN1CCN(c2c(Cl)sc3cc(F)ccc23)CC1)c1ccc(F)cc1F [compound 815053] |  | 5.8 nM
21 | O=C(NCCCCN1CCN(c2c(Cl)sc3cc(F)ccc23)CC1)c1c(F)cc(F)cc1F [compound 815054] |  | 7.7 nM
22 | O=C(NCCCCN1CCN(c2c(Cl)sc3cc(F)ccc23)CC1)c1ccc2c(c1)OCO2 [compound 815055] |  | 3.5 nM
23 | O=C(NCCCCN1CCN(c2c(Cl)sc3cc(F)ccc23)CC1)c1sc2ccccc2c1Cl [compound 815057] |  | 12.3 nM
24 | O=C(NCCCCN1CCN(c2c(Cl)sc3cc(F)ccc23)CC1)c1cccs1 [compound 815058] |  | 4.3 nM
25 | O=C(NCCCCN1CCN(c2c(Cl)sc3cc(F)ccc23)CC1)c1ccc(-c2ccccc2)cc1 [compound 815059] |  | 13.8 nM
26 | O=C(NCCCCN1CCN(c2c(Cl)sc3cc(F)ccc23)CC1)c1ccc(Cl)cc1 [compound 815060] |  | 6.2 nM
27 | O=C(NCCCCN1CCN(c2c(Cl)sc3cc(F)ccc23)CC1)c1ccc([N+](=O)[O-])cc1 [compound 815061] |  | 3.6 nM
28 | COc1ccc(C(=O)NCCCCN2CCN(c3c(Cl)sc4cc(F)ccc34)CC2)cc1OC [compound 815062] |  | 4.1 nM
29 | O=C(NCCCCN1CCN(c2c(Cl)sc3cc(F)ccc23)CC1)c1ccc(Br)cc1 [compound 815063] |  | 6.3 nM
30 | O=C(NCCCCN1CCN(c2c(Cl)sc3cc(F)ccc23)CC1)c1cc2ccccc2s1 [compound 815064] |  | 1.9 nM
31 | O=C(NCCCCN1CCN(c2c(Cl)sc3cc(F)ccc23)CC1)c1ccccc1C(F)(F)F [compound 815065] |  | 43.8 nM
32 | COc1ccccc1C(=O)NCCCCN1CCN(c2c(Cl)sc3cc(F)ccc23)CC1 [compound 815066] |  | 28.7 nM
33 | O=C(NCCCCN1CCN(c2c(Cl)sc3cc(F)ccc23)CC1)c1ccc(C(F)(F)F)cc1 [compound 815067] |  | 20.1 nM
34 | O=C(NCCCCN1CCN(c2c(Cl)sc3cc(F)ccc23)CC1)c1ccco1 [compound 815068] |  | 4.9 nM
35 | O=C(NCCCCN1CCN(c2c(Cl)sc3cc(F)ccc23)CC1)c1c(F)cccc1F [compound 815069] |  | 15 nM
36 | O=C(NCCCCN1CCN(c2c(Cl)sc3cc(F)ccc23)CC1)c1ccccc1Br [compound 815070] |  | 34.4 nM
37 | O=C(NCCCCN1CCN(c2c(Cl)sc3cc(F)ccc23)CC1)C1CCCC1 [compound 815071] |  | 7.2 nM
38 | O=C(NCCCCN1CCC(c2noc3ccsc23)CC1)c1cc2ccccc2s1 [compound 815147] | 371 nM | 

Row | SMILES | Ki [1] | Ki (read-out: D3K1)
39 | O=C(NCCCCN1CCC(c2noc3ccsc23)CC1)c1ccc(Cl)cc1 [compound 815151] | 136 nM | 
40 | CCOc1ccc(C(=O)NCCCCN2CCC(c3noc4ccsc34)CC2)cc1 [compound 815152] | 158 nM | 
41 | COc1cc(OC)cc(C(=O)NCCCCN2CCN(c3csc4cc(C(F)(F)F)ccc34)CC2)c1 [compound 815543] |  | 32 nM
42 | O=C(NCCCCN1CCN(c2csc3cc(C(F)(F)F)ccc23)CC1)c1ccc(-c2ccccc2)cc1 [compound 815547] |  | 4.4 nM
43 | O=C(NCCCCN1CCN(c2csc3cc(C(F)(F)F)ccc23)CC1)c1ccc([N+](=O)[O-])cc1 [compound 815549] |  | 2.1 nM
44 | COc1ccc(C(=O)NCCCCN2CCN(c3csc4cc(C(F)(F)F)ccc34)CC2)cc1OC [compound 815550] |  | 6.9 nM
45 | CCCCCOc1ccc(C(=O)NCCCCN2CCN(c3csc4cc(C(F)(F)F)ccc34)CC2)cc1 [compound 815552] |  | 140 nM
46 | O=C(NCCCCN1CCN(c2csc3cc(C(F)(F)F)ccc23)CC1)c1ccccc1C(F)(F)F [compound 815553] |  | 41 nM
47 | O=C(NCCCCN1CCN(c2csc3cc(C(F)(F)F)ccc23)CC1)c1ccccc1Br [compound 815558] |  | 23 nM
48 | O=C(NCCCCN1CCN(c2csc3cc(C(F)(F)F)ccc23)CC1)C1CCCC1 [compound 815559] |  | 13.5 nM
49 | CCOc1ccc(C(=O)NCCCCN2CCN(c3c(Cl)sc4cc(C(F)(F)F)ccc34)CC2)cc1 [compound 815560] |  | 22 nM
50 | O=C(NCCCCN1CCN(c2c(Cl)sc3cc(C(F)(F)F)ccc23)CC1)c1ccc(F)cc1F [compound 815561] |  | 41 nM
51 | O=C(NCCCCN1CCN(c2c(Cl)sc3cc(C(F)(F)F)ccc23)CC1)c1ccc2c(c1)OCO2 [compound 815563] |  | 21 nM
52 | CCCCOc1ccc(C(=O)NCCCCN2CCN(c3c(Cl)sc4cc(C(F)(F)F)ccc34)CC2)cc1 [compound 815564] |  | 159 nM
53 | O=C(NCCCCN1CCN(c2c(Cl)sc3cc(C(F)(F)F)ccc23)CC1)c1cccs1 [compound 815566] |  | 32 nM
54 | O=C(NCCCCN1CCN(c2c(Cl)sc3cc(C(F)(F)F)ccc23)CC1)c1ccc(Cl)cc1 [compound 815568] |  | 30 nM
55 | O=C(NCCCCN1CCN(c2c(Cl)sc3cc(C(F)(F)F)ccc23)CC1)c1ccc([N+](=O)[O-])cc1 [compound 815569] |  | 13 nM
56 | COc1ccc(C(=O)NCCCCN2CCN(c3c(Cl)sc4cc(C(F)(F)F)ccc34)CC2)cc1OC [compound 815570] |  | 30 nM
57 | O=C(NCCCCN1CCN(c2c(Cl)sc3cc(C(F)(F)F)ccc23)CC1)c1ccc(Br)cc1 [compound 815571] |  | 34.2 nM

From patent US7550469B2, “Heterocyclic amide derivatives and their use as dopamine D3 receptor ligands” (Aventis Pharmaceuticals Inc., priority 2001, dated 2009)
